The test system of data set [1] is NCI/ADR-RES. The data set can be described thus: Cytotoxicity against human MCF7/ADR cells for 60 mins by trypan blue staining. It is filed as functional, cell-based.
For data set [2], the target named is ATP-dependent translocase ABCB1 (Homo sapiens, UniProt P08183). The data set can be described thus: Inhibition of P-glycoprotein in human MCF7/ADR cells assessed as increase in [3H]vinblastine accumulation. To be noted: nci/adr-res. It counts as cell-based.
Data set [3] concerns NCI/ADR-RES. The data set can be described thus: Reversal of P-glycoprotein-mediated multidrug resistance in human MCF7/ADR cells assessed as sensitization to actinomycin D after 48 hrs by SRB assay. It is filed as cell-based.

Activity calls are given as the source filed them. The rule behind the calls is not given here.

Sequence of ATP-dependent translocase ABCB1 (P08183 whole entry): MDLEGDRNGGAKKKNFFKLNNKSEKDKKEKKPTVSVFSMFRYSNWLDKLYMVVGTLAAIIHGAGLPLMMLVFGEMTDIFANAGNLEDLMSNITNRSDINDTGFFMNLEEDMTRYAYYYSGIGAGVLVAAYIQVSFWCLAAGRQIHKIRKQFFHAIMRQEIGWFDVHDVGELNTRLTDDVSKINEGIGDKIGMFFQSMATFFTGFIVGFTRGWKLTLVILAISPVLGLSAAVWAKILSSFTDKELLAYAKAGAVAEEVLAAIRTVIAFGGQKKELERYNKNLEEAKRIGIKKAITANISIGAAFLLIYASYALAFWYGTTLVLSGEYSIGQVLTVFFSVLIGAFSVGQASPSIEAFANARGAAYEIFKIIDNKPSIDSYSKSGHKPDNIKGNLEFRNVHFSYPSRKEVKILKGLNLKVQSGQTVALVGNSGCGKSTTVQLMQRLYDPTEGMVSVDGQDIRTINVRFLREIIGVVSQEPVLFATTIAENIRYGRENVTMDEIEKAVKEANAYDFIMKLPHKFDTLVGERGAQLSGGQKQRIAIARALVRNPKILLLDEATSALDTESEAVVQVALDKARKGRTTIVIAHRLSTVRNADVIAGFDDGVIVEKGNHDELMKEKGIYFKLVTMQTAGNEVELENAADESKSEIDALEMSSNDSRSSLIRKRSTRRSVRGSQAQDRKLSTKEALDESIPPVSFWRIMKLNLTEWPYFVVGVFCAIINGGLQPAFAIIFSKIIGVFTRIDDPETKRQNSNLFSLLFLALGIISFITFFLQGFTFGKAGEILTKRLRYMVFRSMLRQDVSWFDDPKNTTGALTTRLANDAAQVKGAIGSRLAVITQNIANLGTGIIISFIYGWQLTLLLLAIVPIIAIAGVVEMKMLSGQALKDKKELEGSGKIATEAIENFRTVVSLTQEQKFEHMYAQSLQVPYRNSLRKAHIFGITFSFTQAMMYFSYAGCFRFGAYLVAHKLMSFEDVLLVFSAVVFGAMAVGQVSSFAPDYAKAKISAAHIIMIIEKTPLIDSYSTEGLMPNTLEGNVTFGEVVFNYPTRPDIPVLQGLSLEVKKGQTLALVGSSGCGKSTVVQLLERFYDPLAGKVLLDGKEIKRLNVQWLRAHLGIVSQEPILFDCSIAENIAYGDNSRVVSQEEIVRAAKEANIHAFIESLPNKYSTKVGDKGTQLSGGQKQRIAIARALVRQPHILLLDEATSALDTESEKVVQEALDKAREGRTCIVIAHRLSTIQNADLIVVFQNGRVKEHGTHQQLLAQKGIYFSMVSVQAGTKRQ

Consider `CC(=O)O[C@@H]1C[C@@H](O)[C@@H](C)OC1[C@]1(C)C(=O)c2cc3cc(C)c(cc4nc(cc5[nH]c(cc1n2)cc5C)C(=O)[C@@]4(C)C1O[C@H](C)[C@H](O)C[C@H]1OC(C)=O)[nH]3` (stereo partly specified) [TOLYPORPHIN A], for which the result with NCI/ADR-RES [1] was inactive. In addition, the Activity entry in data set [2] is reported as “Dose-dependent effect”. In addition, in the data set on NCI/ADR-RES [3], the result was Active.

Turning to `Cc1cc2cc3nc(cc4cc(C)c(cc5nc(cc1[nH]2)C(=O)C5(C)O)[nH]4)C(=O)C3(C)O` (stereo unspecified) [TOLYPORPHIN J], the result in the data set with NCI/ADR-RES [1] was inactive. For the same compound, the Activity entry in data set [2] is reported as “Dose-dependent effect”. Further, the outcome in the data set with NCI/ADR-RES [3] was Active.
